Data as given in paper PMC10014103, “The immunometabolite itaconate stimulates OXGR1 to promote mucociliary clearance during the pulmonary innate immune response” (The Journal of Clinical Investigation, 2023).

Tested on: Pseudomonas aeruginosa strain PAO1
Test: Mouse intranasal infection with P. aeruginosa strain PAO1, CFU in BAL and lung
Type: in vivo
Conditions: intranasal 1 mM ITA with PAO1, 12 hours after infection
Protocol: A 1 × 10^7 log-phase PAO1 strain in 40 μL PBS was used for infection of the mice. Mice were gently restrained by the scruff at a 45° angle. PBS with the indicated strains was delivered to the nares. PBS alone or with 1 mM ITA was codelivered along with PAO1. Mouse mouths were covered during the whole procedure to ensure complete inhalation into the nose and the lower respiratory tract. BAL and lung tissue were collected 12 hours of infection and plated in cetyl trimethyl ammonium bromide (CTAB) selection agar. The numbers of CFU were counted after 18 hours of culture.

C=C(CC(=O)O)C(=O)O [ITA, itaconate]
bacterial overgrowth phenotype (CFU in BAL and lung), Irg1–/– mice: rescued the bacterial overgrowth phenotype
